{
  "source": "ChEMBL document CHEMBL5715937",
  "about": "“In vitro activity of Bcr-Abl inhibitors AMN107 and BMS-354825 against clinically relevant imatinib-resistant Abl kinase domain mutants” (Cancer Res, 2005)",
  "key": {"[1]": {"experiment": "Inhibition of BCR-ABL E255K mutant (unknown origin) expressed in mouse BaF3 cells assessed as inhibition of cell growth incubated for 72 hrs by […] CellTiter96 viability analysis"}, "[2]": {"experiment": "Inhibition of BCR-ABL E255V mutant (unknown origin) expressed in mouse BaF3 cells assessed as inhibition of cell growth incubated for 72 hrs by […] CellTiter96 viability analysis"}, "[3]": {"experiment": "Inhibition of BCR-ABL V379l mutant (unknown origin) expressed in mouse BaF3 cells assessed as inhibition of cell growth incubated for 72 hrs by […] CellTiter96 viability analysis"}, "[4]": {"experiment": "Inhibition of BCR-ABL L387M mutant (unknown origin) expressed in mouse BaF3 cells assessed as inhibition of cell growth incubated for 72 hrs by […] CellTiter96 viability analysis", "conditions": "BaF3, time 72 hrs, condition chronic myelogenous leukemia"}, "[5]": {"experiment": "Inhibition of BCR-ABL H396P mutant (unknown origin) expressed in mouse BaF3 cells assessed as inhibition of cell growth incubated for 72 hrs by […] CellTiter96 viability analysis"}, "[6]": {"experiment": "Inhibition of BCR-ABL H396R mutant (unknown origin) expressed in mouse BaF3 cells assessed as inhibition of cell growth incubated for 72 hrs by […] CellTiter96 viability analysis"}, "[7]": {"experiment": "Inhibition of BCR-ABL F311L mutant (unknown origin) expressed in mouse BaF3 cells assessed as inhibition of tyrosine phosphorylation incubated for 3 hrs by immunoblotting analysis", "type": "cell-based", "conditions": "BaF3, 3 h"}, "[8]": {"experiment": "Inhibition of BCR-ABL phosphorylation in mouse BaF3 cells incubated for 3 hrs by immunoblotting analysis", "type": "functional, cell-based"}, "[9]": {"system": "BaF3", "experiment": "Induction of apoptosis in mouse BaF3 cells expressing Bcr-Abl M244V mutant at 30 to 300 nM incubated for 72 hrs by Annexin V-phycoerythrin and 7-amino-actinomycin D staining based PCA instrument analysis", "type": "functional, cell-based", "conditions": "dose 30-300 nM"}, "[10]": {"system": "BaF3", "experiment": "Induction of apoptosis in mouse BaF3 cells expressing Bcr-Abl Y253F mutant at 30 to 300 nM incubated for 72 hrs by Annexin V-phycoerythrin and 7-amino-actinomycin D staining based PCA instrument analysis", "type": "functional, cell-based", "conditions": "dose 30-300 nM"}, "[11]": {"system": "BaF3", "experiment": "Induction of apoptosis in mouse BaF3 cells expressing Bcr-Abl Y253H mutant at 30 to 300 nM incubated for 72 hrs by Annexin V-phycoerythrin and 7-amino-actinomycin D staining based PCA instrument analysis", "type": "functional, cell-based", "conditions": "dose 30-300 nM"}, "[12]": {"system": "BaF3", "experiment": "Induction of apoptosis in mouse BaF3 cells expressing Bcr-Abl E255K mutant at 30 to 300 nM incubated for 72 hrs by Annexin V-phycoerythrin and 7-amino-actinomycin D staining based PCA instrument analysis", "type": "functional, cell-based", "conditions": "dose 30-300 nM"}, "[13]": {"system": "BaF3", "experiment": "Induction of apoptosis in mouse BaF3 cells expressing Bcr-Abl E255V mutant at 30 to 300 nM incubated for 72 hrs by Annexin V-phycoerythrin and 7-amino-actinomycin D staining based PCA instrument analysis", "type": "functional, cell-based", "conditions": "dose 30-300 nM"}, "[14]": {"system": "BaF3", "experiment": "Induction of apoptosis in mouse BaF3 cells expressing Bcr-Abl F359V mutant at 30 to 300 nM incubated for 72 hrs by Annexin V-phycoerythrin and 7-amino-actinomycin D staining based PCA instrument analysis", "type": "functional, cell-based", "conditions": "dose 30-300 nM"}, "[15]": {"system": "BaF3", "experiment": "Induction of apoptosis in mouse BaF3 cells expressing Bcr-Abl V379l mutant at 30 to 300 nM incubated for 72 hrs by Annexin V-phycoerythrin and 7-amino-actinomycin D staining based PCA instrument analysis", "type": "functional, cell-based", "conditions": "dose 30-300 nM"}, "[16]": {"system": "BaF3", "experiment": "Induction of apoptosis in mouse BaF3 cells expressing Bcr-Abl L387M mutant at 30 to 300 nM incubated for 72 hrs by Annexin V-phycoerythrin and 7-amino-actinomycin D staining based PCA instrument analysis", "type": "functional, cell-based", "conditions": "dose 30-300 nM"}, "[17]": {"system": "BaF3", "experiment": "Induction of apoptosis in mouse BaF3 cells expressing Bcr-Abl H396P mutant at 30 to 300 nM incubated for 72 hrs by Annexin V-phycoerythrin and 7-amino-actinomycin D staining based PCA instrument analysis", "type": "functional, cell-based", "conditions": "dose 30-300 nM"}, "[18]": {"system": "BaF3", "experiment": "Induction of apoptosis in mouse BaF3 cells expressing Bcr-Abl Q252H mutant assessed as increase in apoptotic cells at 1500 nM incubated for 72 hrs by Annexin V-phycoerythrin and 7-amino-actinomycin D staining based PCA instrument analysis relative to control", "type": "functional"}, "[19]": {"system": "BaF3", "experiment": "Induction of apoptosis in mouse BaF3 cells expressing Bcr-Abl Y253F mutant assessed as increase in apoptotic cells at 1500 nM incubated for 72 hrs by Annexin V-phycoerythrin and 7-amino-actinomycin D staining based PCA instrument analysis relative to control", "type": "functional"}, "[20]": {"system": "BaF3", "experiment": "Induction of apoptosis in mouse BaF3 cells expressing Bcr-Abl Y253H mutant assessed as increase in apoptotic cells at 1500 nM incubated for 72 hrs by Annexin V-phycoerythrin and 7-amino-actinomycin D staining based PCA instrument analysis relative to control", "type": "functional"}, "[21]": {"system": "BaF3", "experiment": "Induction of apoptosis in mouse BaF3 cells expressing Bcr-Abl E255V mutant assessed as increase in apoptotic cells at 1500 nM incubated for 72 hrs by Annexin V-phycoerythrin and 7-amino-actinomycin D staining based PCA instrument analysis relative to control", "type": "functional"}, "[22]": {"system": "BaF3", "experiment": "Induction of apoptosis in mouse BaF3 cells expressing Bcr-Abl F311L mutant assessed as increase in apoptotic cells at 1500 nM incubated for 72 hrs by Annexin V-phycoerythrin and 7-amino-actinomycin D staining based PCA instrument analysis relative to control", "type": "functional"}, "[23]": {"system": "BaF3", "experiment": "Induction of apoptosis in mouse BaF3 cells expressing Bcr-Abl M351T mutant assessed as increase in apoptotic cells at 1500 nM incubated for 72 hrs by Annexin V-phycoerythrin and 7-amino-actinomycin D staining based PCA instrument analysis relative to control", "type": "functional"}, "[24]": {"system": "BaF3", "experiment": "Induction of apoptosis in mouse BaF3 cells expressing Bcr-Abl F359V mutant assessed as increase in apoptotic cells at 1500 nM incubated for 72 hrs by Annexin V-phycoerythrin and 7-amino-actinomycin D staining based PCA instrument analysis relative to control", "type": "functional"}, "[25]": {"system": "BaF3", "experiment": "Induction of apoptosis in mouse BaF3 cells expressing Bcr-Abl L387M mutant assessed as increase in apoptotic cells at 1500 nM incubated for 72 hrs by Annexin V-phycoerythrin and 7-amino-actinomycin D staining based PCA instrument analysis relative to control", "type": "functional"}, "[26]": {"system": "BaF3", "experiment": "Induction of apoptosis in mouse BaF3 cells expressing Bcr-Abl H396R mutant assessed as increase in apoptotic cells at 1500 nM incubated for 72 hrs by Annexin V-phycoerythrin and 7-amino-actinomycin D staining based PCA instrument analysis relative to control", "type": "functional"}, "[27]": {"experiment": "cells", "conditions": "Mus musculus, BaF3, 3 h"}, "[28]": {"experiment": "cells", "conditions": "Mus musculus, BaF3, 3 h", "remark": "listed apart in the source"}, "[29]": {"experiment": "cells", "conditions": "Mus musculus, BaF3, 3 h", "remark": "listed apart in the source"}, "[30]": {"experiment": "cells", "conditions": "Mus musculus, BaF3, 3 h", "remark": "listed apart in the source"}, "[31]": {"experiment": "cells", "conditions": "Mus musculus, BaF3, 3 h", "remark": "listed apart in the source"}, "[32]": {"experiment": "cells", "conditions": "Mus musculus, BaF3, 3 h", "remark": "listed apart in the source"}, "[33]": {"experiment": "cells", "conditions": "Mus musculus, BaF3, 3 h", "remark": "listed apart in the source"}, "[34]": {"conditions": "BaF3, time 72 hrs, condition chronic myelogenous leukemia"}},
  "note": "Active and inactive are the calls of the source. The rule behind the calls is not given here.",
  "data": [
    {"molecule": "Cc1cn(-c2cc(NC(=O)c3ccc(C)c(Nc4nccc(-c5cccnc5)n4)c3)cc(C(F)(F)F)c2)cn1", "note": "[NILOTINIB]", "values": [
      {"measurement": "IC50", "setting": "[1]; BaF3, 72 h", "result": 200, "unit": "nM"},
      {"measurement": "IC90", "setting": "[1]; [34]", "result": 415, "unit": "nM"},
      {"measurement": "IC50", "setting": "[2]; BaF3, 72 h", "result": 430, "unit": "nM"},
      {"measurement": "IC90", "setting": "[2]; [34]", "result": 2000, "unit": "nM"},
      {"measurement": "IC50", "setting": "[3]; BaF3, 72 h", "result": 51, "unit": "nM"},
      {"measurement": "IC90", "setting": "[3]; [34]", "result": 115, "unit": "nM"},
      {"measurement": "IC90", "setting": "[4]", "result": 115, "unit": "nM"},
      {"measurement": "IC50", "setting": "[5]; BaF3, 72 h", "result": 41, "unit": "nM"},
      {"measurement": "IC90", "setting": "[5]; [34]", "result": 69, "unit": "nM"},
      {"measurement": "IC50", "setting": "[6]; BaF3, 72 h", "result": 41, "unit": "nM"},
      {"measurement": "IC90", "setting": "[6]; [34]", "result": 73, "unit": "nM"},
      {"measurement": "IC50", "setting": "[7]", "result": 44, "unit": "nM"},
      {"measurement": "IC50", "setting": "[8]", "result": "Not Active"},
      {"measurement": "Activity", "setting": "[9]", "result": "Active"},
      {"measurement": "Activity", "setting": "[10]", "result": "Active"},
      {"measurement": "Activity", "setting": "[11]", "result": "Active"},
      {"measurement": "Activity", "setting": "[12]", "result": "Active"},
      {"measurement": "Activity", "setting": "[13]", "result": "Active"},
      {"measurement": "Activity", "setting": "[14]", "result": "Active"},
      {"measurement": "Activity", "setting": "[15]", "result": "Active"},
      {"measurement": "Activity", "setting": "[16]", "result": "Active"},
      {"measurement": "Activity", "setting": "[17]", "result": "Active"},
      {"measurement": "Activity", "setting": "[18]", "result": ">90", "unit": "%"},
      {"measurement": "Activity", "setting": "[19]", "result": ">90", "unit": "%"},
      {"measurement": "Activity", "setting": "[20]", "result": 65, "unit": "%"},
      {"measurement": "Activity", "setting": "[21]", "result": 65, "unit": "%"},
      {"measurement": "Activity", "setting": "[22]", "result": ">90", "unit": "%"},
      {"measurement": "Activity", "setting": "[23]", "result": ">90", "unit": "%"},
      {"measurement": "Activity", "setting": "[24]", "result": ">90", "unit": "%"},
      {"measurement": "Activity", "setting": "[25]", "result": ">90", "unit": "%"},
      {"measurement": "Activity", "setting": "[26]", "result": ">90", "unit": "%"},
      {"measurement": "IC50", "setting": "[27]", "result": 8, "unit": "nM"},
      {"measurement": "IC50", "setting": "[28]", "result": 7, "unit": "nM"},
      {"measurement": "IC50", "setting": "[29]", "result": 15, "unit": "nM"},
      {"measurement": "IC50", "setting": "[30]", "result": 55, "unit": "nM"},
      {"measurement": "IC50", "setting": "[31]", "result": 70, "unit": "nM"},
      {"measurement": "IC50", "setting": "[32]", "result": 250, "unit": "nM"},
      {"measurement": "IC50", "setting": "[33]", "result": 8, "unit": "nM"}
    ]}
  ]
}
